Measurements from PubChem BioAssay (NCI).
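Cultured in 96-well plates, cells were exposed to test compound for 48 hours across five concentrations. At the GI50, growth is halved. TGI: total growth inhibition.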

How the values were obtained:
Assay in all cases: DTP human tumour cell line panel, 48 h
EKVX NSCLC = tested on: EKVX NSCLC
HCT-15 colon = tested on: HCT-15 colon
K-562 leukemia = tested on: K-562 leukemia
KM12 colon = tested on: KM12 colon
M14 melanoma = tested on: M14 melanoma
MDA-MB-435 = tested on: MDA-MB-435
NCI-H226 lung = tested on: NCI-H226 lung
RXF 393 renal = tested on: RXF 393 renal
SF-268 CNS = tested on: SF-268 CNS
SK-OV-3 ovarian = tested on: SK-OV-3 ovarian

Structure (SMILES): C=CC(=O)N1CCN(c2nc(=O)n(-c3c(C)ccnc3C(C)C)c3nc(-c4c(O)cccc4F)c(F)cc23)[C@@H](C)C1
- GI50 (EKVX NSCLC): 48.6 µM
- TGI (EKVX NSCLC): > 100 µM
- GI50 (HCT-15 colon): 29.5 µM
- TGI (HCT-15 colon): > 74.3 µM
- GI50 (K-562 leukemia): 23.2 µM
- TGI (K-562 leukemia): > 85 µM
- GI50 (KM12 colon): 23.4 µM
- TGI (KM12 colon): 54 µM
- GI50 (M14 melanoma): 17 µM
- TGI (M14 melanoma): > 52.6 µM
- GI50 (MDA-MB-435): 25.1 µM
- TGI (MDA-MB-435): 70 µM
- GI50 (NCI-H226 lung): 25.4 µM
- TGI (NCI-H226 lung): > 100 µM
- GI50 (RXF 393 renal): 17.7 µM
- TGI (RXF 393 renal): 59.2 µM
- GI50 (SF-268 CNS): 35.6 µM
- TGI (SF-268 CNS): > 100 µM
- GI50 (SK-OV-3 ovarian): > 77.8 µM
- TGI (SK-OV-3 ovarian): > 100 µM

Structure (SMILES): COc1cc(C)c(Cl)cc1C1=NN(c2ccc(S(N)(=O)=O)cc2)C(/C=C/c2ccccc2)C1 (stereo not given)
- GI50 (EKVX NSCLC): 2.68 µM
- TGI (EKVX NSCLC): 22 µM
- GI50 (HCT-15 colon): 3.11 µM
- TGI (HCT-15 colon): > 100 µM
- GI50 (K-562 leukemia): 5.29 µM
- TGI (K-562 leukemia): > 100 µM
- GI50 (KM12 colon): 3.4 µM
- TGI (KM12 colon): 14.8 µM
- GI50 (M14 melanoma): 4.11 µM
- TGI (M14 melanoma): 24.3 µM
- GI50 (MDA-MB-435): 2.65 µM
- TGI (MDA-MB-435): 8.4 µM
- GI50 (NCI-H226 lung): 1.53 µM
- TGI (NCI-H226 lung): 3.46 µM
- GI50 (RXF 393 renal): 1.71 µM
- TGI (RXF 393 renal): 3.5 µM
- GI50 (SF-268 CNS): 4.4 µM
- TGI (SF-268 CNS): > 100 µM
- GI50 (SK-OV-3 ovarian): 3.74 µM
- TGI (SK-OV-3 ovarian): 16.2 µM

Structure (SMILES): O=C(Nc1cccc(Cl)c1)c1ccc(NC2=C(Cl)C(=O)N(Cc3ccccc3)C2=O)cc1
- GI50 (EKVX NSCLC): > 46 µM
- TGI (EKVX NSCLC): > 69.3 µM
- GI50 (HCT-15 colon): 1.98 µM
- TGI (HCT-15 colon): 4.76 µM
- GI50 (K-562 leukemia): 2.58 µM
- TGI (K-562 leukemia): 8.69 µM
- GI50 (KM12 colon): > 38.3 µM
- TGI (KM12 colon): > 56.2 µM
- GI50 (M14 melanoma): 16.6 µM
- TGI (M14 melanoma): 37.3 µM
- GI50 (MDA-MB-435): 9.43 µM
- TGI (MDA-MB-435): 33.6 µM
- GI50 (NCI-H226 lung): 14.8 µM
- TGI (NCI-H226 lung): 31 µM
- GI50 (RXF 393 renal): 9.55 µM
- TGI (RXF 393 renal): 24.7 µM
- GI50 (SF-268 CNS): 8.93 µM
- TGI (SF-268 CNS): 25.3 µM
- GI50 (SK-OV-3 ovarian): 43.6 µM
- TGI (SK-OV-3 ovarian): > 95.5 µM

Structure (SMILES): Nc1ncnc2c1nc(Cl)n2C1OC2COP(=O)(O)OC2C1O (stereo not given)
- TGI (EKVX NSCLC): > 300 µM
- TGI (HCT-15 colon): > 300 µM
- TGI (K-562 leukemia): > 300 µM
- TGI (KM12 colon): > 300 µM
- TGI (M14 melanoma): > 300 µM
- TGI (MDA-MB-435): > 255 µM
- TGI (NCI-H226 lung): > 155 µM
- TGI (RXF 393 renal): > 300 µM
- TGI (SF-268 CNS): > 300 µM
- TGI (SK-OV-3 ovarian): > 300 µM

Structure (SMILES): N[C@@H]1CCCC[C@H]1N.O=C([O-])C(=O)[O-].[Pt+4]
- GI50 (EKVX NSCLC): 88.7 µM
- TGI (EKVX NSCLC): > 100 µM
- GI50 (HCT-15 colon): 0.646 µM
- TGI (HCT-15 colon): > 64.9 µM
- GI50 (K-562 leukemia): 0.854 µM
- TGI (K-562 leukemia): > 95.3 µM
- GI50 (KM12 colon): 10.9 µM
- TGI (KM12 colon): > 100 µM
- GI50 (M14 melanoma): 7.22 µM
- TGI (M14 melanoma): 45.1 µM
- GI50 (MDA-MB-435): 0.577 µM
- TGI (MDA-MB-435): 18.6 µM
- GI50 (NCI-H226 lung): 2.55 µM
- TGI (NCI-H226 lung): 17 µM
- GI50 (RXF 393 renal): 8.13 µM
- TGI (RXF 393 renal): > 39.8 µM
- GI50 (SF-268 CNS): 4.12 µM
- TGI (SF-268 CNS): > 100 µM
- GI50 (SK-OV-3 ovarian): > 66.2 µM
- TGI (SK-OV-3 ovarian): > 100 µM

Structure (SMILES): COc1ccc(/C=C/C(=O)c2ccc(SC)cc2)cc1OC
- GI50 (EKVX NSCLC): 19.1 µM
- TGI (EKVX NSCLC): 35.9 µM
- GI50 (HCT-15 colon): 3.1 µM
- TGI (HCT-15 colon): 13.3 µM
- GI50 (K-562 leukemia): 4.09 µM
- TGI (K-562 leukemia): 33.8 µM
- GI50 (KM12 colon): 3.9 µM
- TGI (KM12 colon): 22.6 µM
- GI50 (M14 melanoma): 3.83 µM
- TGI (M14 melanoma): 14.2 µM
- GI50 (MDA-MB-435): 3.44 µM
- TGI (MDA-MB-435): 13.4 µM
- GI50 (NCI-H226 lung): 8.42 µM
- TGI (NCI-H226 lung): 45.1 µM
- GI50 (RXF 393 renal): 12.7 µM
- TGI (RXF 393 renal): 29.4 µM
- GI50 (SF-268 CNS): 22.3 µM
- TGI (SF-268 CNS): 63.8 µM
- GI50 (SK-OV-3 ovarian): 34.1 µM
- TGI (SK-OV-3 ovarian): > 100 µM
